Results published in ChEMBL document CHEMBL1154516, “Highly efficacious factor Xa inhibitors containing alpha-substituted phenylcycloalkyl P4 moieties” (Bioorg Med Chem Lett, 2009).

Assays:
in vivo [1] = conditions: dog, po, 0.2 mg/kg
in vivo [2] = conditions: dog, iv, 0.5 mg/kg
in vivo [3] = conditions: dog, po, 0.2 mg/kg; remark: listed apart in the source
in vitro [4] = conditions: human, liver microsomes
in vitro [5] = conditions: dog, liver microsomes
in vivo [6] = conditions: dog, iv, 0.5 mg/kg; remark: listed apart in the source
physchem = conditions: octanol/water
Canis familiaris = organism: Canis familiaris; conditions: dog, in vivo, po, 0.2 mg/kg

COc1ccc(-n2nc(C(N)=O)c3c2C(=O)N(c2ccc(C4(CN5CCCC5)CC4)cc2)CC3)cc1.O=C(O)C(F)(F)F
half-life (in vivo [1]): 4 h | clearance (in vivo [2]): 28.3 mL/min/kg | bioavailability (in vivo [3]): 6% | half-life (in vitro [4]): > 3.33 h | half-life (in vitro [5]): 1 h | Vd (in vivo [6]): 7.1 L/kg

COc1ccc(-n2nc(C(N)=O)c3c2C(=O)N(c2ccc(N4CCCCC4=O)cc2)CC3)cc1 [APIXABAN]
clearance (in vivo [2]): 0.333 mL/min/kg | Vd (in vivo [6]): 0.2 L/kg

COc1ccc(-n2nc(C(N)=O)c3c2C(=O)N(c2ccc(C4(CN5CCCC5=O)CC4)cc2)CC3)cc1.O=C(O)C(F)(F)F
half-life (in vivo [1]): 0.99 h | clearance (in vivo [2]): 4.17 mL/min/kg | bioavailability (in vivo [3]): 3.1% | half-life (in vitro [4]): 0.167 h | half-life (in vitro [5]): 0.183 h | Vd (in vivo [6]): 0.2 L/kg

CNC1(c2ccc(N3CCc4c(C(N)=O)nn(-c5ccc(OC)cc5)c4C3=O)cc2)CC1.O=C(O)C(F)(F)F
half-life (in vivo [1]): 1.6 h | clearance (in vivo [2]): 30 mL/min/kg | bioavailability (in vivo [3]): 15% | half-life (in vitro [4]): 2.43 h | half-life (in vitro [5]): 0.6 h | Vd (in vivo [6]): 4.4 L/kg

COc1ccc(-n2nc(C(N)=O)c3c2C(=O)N(c2ccc(C4(CN5CCOCC5)CC4)cc2)CC3)cc1
logP (physchem): 3.3

COc1ccc(-n2nc(C(N)=O)c3c2C(=O)N(c2ccc(C4(N(C)CCO)CC4)cc2)CC3)cc1.O=C(O)C(F)(F)F
half-life (in vivo [1]): 4.3 h | clearance (in vivo [2]): 20 mL/min/kg | bioavailability (in vivo [3]): 67% | half-life (in vitro [4]): 0.783 h | half-life (in vitro [5]): 3 h | Vd (in vivo [6]): 4.1 L/kg

COc1ccc(-n2nc(C(N)=O)c3c2C(=O)N(c2ccc(C4(CC(N)=O)CC4)cc2)CC3)cc1.O=C(O)C(F)(F)F
half-life (in vivo [1]): 1.9 h | clearance (in vivo [2]): 8.17 mL/min/kg | bioavailability (in vivo [3]): 27% | half-life (in vitro [4]): 1.62 h | half-life (in vitro [5]): 1.65 h | Vd (in vivo [6]): 0.65 L/kg

COc1ccc(-n2nc(C#N)c3c2C(=O)N(c2ccc(C4(CN(C)C)CC4)cc2)CC3)cc1.O=C(O)C(F)(F)F
half-life (in vivo [1]): 6.4 h | clearance (in vivo [2]): 22.8 mL/min/kg | logP (physchem): 2.5 | bioavailability (in vivo [3]): 41% | half-life (in vitro [4]): 2.97 h | half-life (in vitro [5]): 1.22 h | Vd (in vivo [6]): 11.7 L/kg

COc1ccc(-n2nc(S(C)(=O)=O)c3c2C(=O)N(c2ccc(C4(Cn5ccnc5C)CC4)cc2)CC3)cc1.O=C(O)C(F)(F)F
clearance (in vivo [2]): 70 mL/min/kg | bioavailability (in vivo [3]): 0.2% | half-life (in vitro [4]): 0.0833 h | Vd (in vivo [6]): 4 L/kg

COc1ccc(-n2nc(S(C)(=O)=O)c3c2C(=O)N(c2ccc(C4(CN5CCOCC5)CC4)cc2)CC3)cc1.O=C(O)C(F)(F)F
half-life (in vivo [1]): 4 h | clearance (in vivo [2]): 13.3 mL/min/kg | bioavailability (in vivo [3]): 61% | half-life (in vitro [4]): 0.417 h | Vd (in vivo [6]): 1.9 L/kg

COc1ccc(N2N=C(S(C)(=O)=O)C3CCN(c4ccc(C5(CN6CCCC6)CC5)cc4)C(=O)C32)cc1.O=C(O)C(F)(F)F (centres undefined)
half-life (in vivo [1]): 2.3 h | clearance (in vivo [2]): 55 mL/min/kg | bioavailability (in vivo [3]): 100% | half-life (in vitro [4]): 0.617 h | Vd (in vivo [6]): 7.7 L/kg

CNCC1(c2ccc(N3CCc4c(C(F)(F)F)nn(-c5ccc(OC)cc5)c4C3=O)cc2)CC1
logP (physchem): 3.2

CN(C)Cc1nccn1-c1ccc(NC(=O)c2cc(C(F)(F)F)nn2-c2ccc3onc(N)c3c2)c(F)c1 [RAZAXABAN]
t1/2 (Canis familiaris): 3.4 h

COc1ccc(-n2nc(C(F)(F)F)c3c2C(=O)N(c2ccc(C4(CN5CCCC5)CC4)cc2)CC3)cc1
logP (physchem): 3.4

COc1ccc(-n2nc(C#N)c3c2C(=O)N(c2ccc(C4(CN5CCOCC5)CC4)cc2)CC3)cc1
logP (physchem): 4

COc1ccc(-n2nc(C(F)(F)F)c3c2C(=O)N(c2ccc(C4(CN(C)C)CC4)cc2)CC3)cc1
logP (physchem): 3.4
